Measured values published in patent US20240182531A1, “KV1.3 Blockers” (priority 2021, published 2024).
Where a SMILES comes first, the peptide text is derived from it. Bridges are numbered along the chain shown (N, C = ends).

Tests used:
[1] = target: T1, human Kv1.2 (Homo sapiens, UniProt P16389); assay: cell-based; conditions: ratio of patch clamp IC50 values
T1 construct: expressed in transfected cells; host or cells: CHO

[2] = target: Rat whole blood (Rattus norvegicus, UniProt P15384); format: cell-based; conditions: IL-17A release, thapsigargin, 24 Hr, at least 2 replicates
[3] = target: T2, human Kv1.1 (Homo sapiens, UniProt Q09470); assay: cell-based; conditions: ratio of patch clamp IC50 values
T2 construct: expressed in transfected cells; host or cells: CHO

[4] = target: T3, human Kv1.6 (Homo sapiens, UniProt P17658); assay: cell-based; conditions: ratio of patch clamp IC50 values
T3 construct: expressed in transfected cells; host or cells: CHO
T3 sequence (P17658 whole entry): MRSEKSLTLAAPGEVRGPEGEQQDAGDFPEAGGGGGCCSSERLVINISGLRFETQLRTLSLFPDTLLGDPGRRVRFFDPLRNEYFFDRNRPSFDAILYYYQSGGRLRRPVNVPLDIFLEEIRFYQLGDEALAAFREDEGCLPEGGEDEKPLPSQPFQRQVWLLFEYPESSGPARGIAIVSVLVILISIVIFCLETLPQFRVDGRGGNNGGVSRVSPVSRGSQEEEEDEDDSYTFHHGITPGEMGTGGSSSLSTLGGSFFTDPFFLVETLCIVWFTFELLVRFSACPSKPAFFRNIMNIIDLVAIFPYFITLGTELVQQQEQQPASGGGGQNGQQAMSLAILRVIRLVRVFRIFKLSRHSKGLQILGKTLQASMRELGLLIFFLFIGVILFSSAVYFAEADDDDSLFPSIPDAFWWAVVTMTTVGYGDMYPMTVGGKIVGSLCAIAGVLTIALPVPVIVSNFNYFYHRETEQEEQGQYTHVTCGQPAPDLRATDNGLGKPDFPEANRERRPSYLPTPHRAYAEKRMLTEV

T1 sequence (P16389 whole entry): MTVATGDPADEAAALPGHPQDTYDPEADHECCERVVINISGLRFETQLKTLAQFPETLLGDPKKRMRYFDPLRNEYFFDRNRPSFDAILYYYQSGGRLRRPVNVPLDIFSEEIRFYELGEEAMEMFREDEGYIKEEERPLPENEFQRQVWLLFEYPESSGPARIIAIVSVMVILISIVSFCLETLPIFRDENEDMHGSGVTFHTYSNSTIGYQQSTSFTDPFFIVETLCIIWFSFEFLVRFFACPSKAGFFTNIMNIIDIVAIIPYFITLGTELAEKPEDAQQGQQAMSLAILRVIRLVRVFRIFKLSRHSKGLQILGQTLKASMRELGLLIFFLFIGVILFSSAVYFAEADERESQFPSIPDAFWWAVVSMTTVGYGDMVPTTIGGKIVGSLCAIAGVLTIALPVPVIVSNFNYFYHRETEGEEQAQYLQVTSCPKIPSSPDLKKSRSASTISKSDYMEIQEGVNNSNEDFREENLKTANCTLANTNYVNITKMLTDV
Sequence of Rat whole blood (P15384 whole entry): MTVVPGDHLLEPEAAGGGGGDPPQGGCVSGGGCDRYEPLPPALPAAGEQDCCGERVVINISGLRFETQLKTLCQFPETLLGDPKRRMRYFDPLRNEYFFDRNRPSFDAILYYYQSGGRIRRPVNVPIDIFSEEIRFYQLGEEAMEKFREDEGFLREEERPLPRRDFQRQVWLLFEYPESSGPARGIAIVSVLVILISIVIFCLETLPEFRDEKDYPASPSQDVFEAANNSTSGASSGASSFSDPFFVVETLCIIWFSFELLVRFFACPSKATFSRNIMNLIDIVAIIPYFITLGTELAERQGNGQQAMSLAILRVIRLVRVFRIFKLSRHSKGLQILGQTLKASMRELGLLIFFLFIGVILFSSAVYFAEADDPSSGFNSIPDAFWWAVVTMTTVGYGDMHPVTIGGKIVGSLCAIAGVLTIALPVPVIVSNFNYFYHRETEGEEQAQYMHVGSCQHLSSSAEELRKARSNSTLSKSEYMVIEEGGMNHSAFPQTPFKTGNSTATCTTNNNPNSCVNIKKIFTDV
T2 sequence (Q09470 whole entry): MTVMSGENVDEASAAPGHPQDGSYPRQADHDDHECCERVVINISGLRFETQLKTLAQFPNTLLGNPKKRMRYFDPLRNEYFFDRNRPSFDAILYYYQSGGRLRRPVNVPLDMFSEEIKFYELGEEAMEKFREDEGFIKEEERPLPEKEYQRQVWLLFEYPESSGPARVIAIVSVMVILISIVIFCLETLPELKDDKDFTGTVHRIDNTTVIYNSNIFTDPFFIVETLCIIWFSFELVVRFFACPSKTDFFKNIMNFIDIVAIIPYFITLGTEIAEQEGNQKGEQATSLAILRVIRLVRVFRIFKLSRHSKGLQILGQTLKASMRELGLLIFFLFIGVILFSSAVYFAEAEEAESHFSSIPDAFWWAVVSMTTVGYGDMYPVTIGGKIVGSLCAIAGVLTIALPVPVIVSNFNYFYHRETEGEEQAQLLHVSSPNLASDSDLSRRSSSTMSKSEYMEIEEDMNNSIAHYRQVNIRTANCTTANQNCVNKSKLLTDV

SMILES	Selectivity ratio Kv1.2/Kv1.3 [1]	IC50 [2] [nM]	Selectivity ratio Kv1.1/Kv1.3 [3]	Selectivity ratio Kv1.6/Kv1.3 [4]
CC[C@H](C)[C@@H]1NC(=O)[C@H](C)NC(=O)[C@H](CCCCN)NC(=O)[C@H](CC(C)C)NC(=O)[C@@H]2CSSC[C@@H](C(=O)N[C@@H](Cc3ccc(O)cc3)C(=O)N3CCC[C@H]3C(=O)N[C@@H](CCCNC(=N)N)C(N)=O)NC(=O)[C@H](CCCCN)NC(=O)[C@@H]3CSSC[C@H](NC(=O)[C@H](CCC(=O)O)NC(=O)[C@H](C(C)C)NC(=O)[C@H](CO)NC(=O)[C@H](C)NC(=O)[C@H](CO)NC(=O)[C@@H](NC(=O)[C@H](CCCNC(=N)N)NC(=O)[C@H](CCSC)NC(=O)[C@H](CC(=O)O)NC(=O)[C@H](CCSC)NC(=O)[C@@H](N)CC(N)=O)CSSC[C@H](NC(=O)[C@H](CCCCN)NC(=O)CNC(=O)[C@H](Cc4ccccc4)NC(=O)[C@H]([C@@H](C)CC)NC(=O)[C@H](CO)NC(=O)[C@H](CCCNC(=N)N)NC1=O)C(=O)N[C@@H](CCSC)C(=O)N[C@@H](CC(N)=O)C(=O)N[C@@H](CCCCN)C(=O)N[C@@H](CCCCN)C(=O)N3)C(=O)N[C@@H](CCCCN)C(=O)N[C@@H](CCC(N)=O)C(=O)N[C@@H](CCCCN)C(=O)N2 [compound 26] (H-NMDMRCSASVECKQKCLKAIRSIFGKCMNKKCKCYPR-NH2; disulfide 6-27, 12-32, 16-34)	259	0.82	>13700	2851
CC[C@H](C)[C@@H]1NC(=O)[C@H](C)NC(=O)[C@H](CCCCN)NC(=O)[C@H](CC(C)C)NC(=O)[C@@H]2CSSC[C@@H](C(=O)N[C@@H](Cc3ccc(O)cc3)C(=O)N3CCC[C@H]3C(=O)N[C@@H](CCCNC(=N)N)C(N)=O)NC(=O)[C@H](CCCCN)NC(=O)[C@@H]3CSSC[C@H](NC(=O)[C@H](CCC(=O)O)NC(=O)[C@H](C(C)C)NC(=O)[C@H](CO)NC(=O)[C@H](C)NC(=O)[C@H](CO)NC(=O)[C@@H](NC(=O)[C@H](CCCNC(=N)N)NC(=O)[C@H](CCSC)NC(=O)[C@H](CC(=O)O)NC(=O)[C@H](CCSC)NC(=O)[C@@H](N)CC(N)=O)CSSC[C@H](NC(=O)[C@H](CCCCN)NC(=O)CNC(=O)[C@H](Cc4ccccc4)NC(=O)[C@H]([C@@H](C)CC)NC(=O)[C@H](CO)NC(=O)[C@H](CCC(=O)O)NC1=O)C(=O)N[C@@H](CCSC)C(=O)N[C@@H](CC(N)=O)C(=O)N[C@@H](CCCCN)C(=O)N[C@@H](CCCCN)C(=O)N3)C(=O)N[C@@H](CCCCN)C(=O)N[C@@H](CCC(N)=O)C(=O)N[C@@H](CCCCN)C(=O)N2 [compound 27] (H-NMDMRCSASVECKQKCLKAIESIFGKCMNKKCKCYPR-NH2; disulfide 6-27, 12-32, 16-34)	615	2.8	>10200	>10200
CC[C@H](C)[C@@H]1NC(=O)[C@H](C)NC(=O)[C@H](CCCCN)NC(=O)[C@H](CC(C)C)NC(=O)[C@@H]2CSSC[C@@H](C(=O)N[C@@H](Cc3ccc(O)cc3)C(=O)N3CCC[C@H]3C(=O)N[C@@H](CCCNC(=N)N)C(N)=O)NC(=O)[C@H](CCCCN)NC(=O)[C@@H]3CSSC[C@H](NC(=O)[C@H](CCC(=O)O)NC(=O)[C@H](C(C)C)NC(=O)[C@H](CO)NC(=O)[C@H]([C@@H](C)CC)NC(=O)[C@H](CO)NC(=O)[C@@H](NC(=O)[C@H](CCCNC(=N)N)NC(=O)[C@H](CCSC)NC(=O)[C@H](CC(=O)O)NC(=O)[C@H](CCSC)NC(=O)[C@@H](N)CC(N)=O)CSSC[C@H](NC(=O)[C@H](CCCCN)NC(=O)CNC(=O)[C@H](Cc4ccccc4)NC(=O)[C@H]([C@@H](C)CC)NC(=O)[C@H](CO)NC(=O)CNC1=O)C(=O)N[C@@H](CCSC)C(=O)N[C@@H](CC(N)=O)C(=O)N[C@@H](CCCCN)C(=O)N[C@@H](CCCCN)C(=O)N3)C(=O)N[C@@H](CCCCN)C(=O)N[C@@H](CCC(N)=O)C(=O)N[C@@H](CCCCN)C(=O)N2 [compound 30] (H-NMDMRCSISVECKQKCLKAIGSIFGKCMNKKCKCYPR-NH2; disulfide 6-27, 12-32, 16-34)	169	0.61	>11800	>11800
CC[C@H](C)[C@@H]1NC(=O)[C@H](C)NC(=O)[C@H](CCCCN)NC(=O)[C@H](CC(C)C)NC(=O)[C@@H]2CSSC[C@@H](C(=O)N[C@@H](Cc3ccc(O)cc3)C(=O)N3CCC[C@H]3C(=O)N[C@@H](CCCNC(=N)N)C(N)=O)NC(=O)[C@H](CCCCN)NC(=O)[C@@H]3CSSC[C@H](NC(=O)[C@H](CCC(=O)O)NC(=O)[C@H](CCCNC(=N)N)NC(=O)[C@H](CO)NC(=O)[C@H](C)NC(=O)[C@H](CO)NC(=O)[C@@H](NC(=O)[C@H](CCCNC(=N)N)NC(=O)[C@H](CCSC)NC(=O)[C@H](CC(=O)O)NC(=O)[C@H](CCSC)NC(=O)[C@@H](N)CC(N)=O)CSSC[C@H](NC(=O)[C@H](CCCCN)NC(=O)CNC(=O)[C@H](Cc4ccccc4)NC(=O)[C@H]([C@@H](C)CC)NC(=O)[C@H](CO)NC(=O)CNC1=O)C(=O)N[C@@H](CCSC)C(=O)N[C@@H](CC(N)=O)C(=O)N[C@@H](CCCCN)C(=O)N[C@@H](CCCCN)C(=O)N3)C(=O)N[C@@H](CCCCN)C(=O)N[C@@H](CCC(N)=O)C(=O)N[C@@H](CCCCN)C(=O)N2 [compound 31] (H-NMDMRCSASRECKQKCLKAIGSIFGKCMNKKCKCYPR-NH2; disulfide 6-27, 12-32, 16-34)	94	0.68	>25900	1778
CC[C@H](C)[C@@H]1NC(=O)[C@H](C)NC(=O)[C@H](CCCCN)NC(=O)[C@H](CC(C)C)NC(=O)[C@@H]2CSSC[C@@H](C(=O)N[C@@H](Cc3ccc(O)cc3)C(=O)N3CCC[C@H]3C(=O)N[C@@H](CCCNC(=N)N)C(N)=O)NC(=O)[C@H](CCCCN)NC(=O)[C@@H]3CSSC[C@H](NC(=O)[C@H](CCC(N)=O)NC(=O)[C@H](C(C)C)NC(=O)[C@H](CO)NC(=O)[C@H](C)NC(=O)[C@H](CO)NC(=O)[C@@H](NC(=O)[C@H](CCCNC(=N)N)NC(=O)[C@H](CCSC)NC(=O)[C@H](CC(=O)O)NC(=O)[C@H](CCSC)NC(=O)[C@@H](N)CC(N)=O)CSSC[C@H](NC(=O)[C@H](CCCCN)NC(=O)CNC(=O)[C@H](Cc4ccccc4)NC(=O)[C@H]([C@@H](C)CC)NC(=O)[C@H](CO)NC(=O)CNC1=O)C(=O)N[C@@H](CCSC)C(=O)N[C@@H](CC(N)=O)C(=O)N[C@@H](CCCCN)C(=O)N[C@@H](CCCCN)C(=O)N3)C(=O)N[C@@H](CCCCN)C(=O)N[C@@H](CCC(N)=O)C(=O)N[C@@H](CCCCN)C(=O)N2 [compound 32] (H-NMDMRCSASVQCKQKCLKAIGSIFGKCMNKKCKCYPR-NH2; disulfide 6-27, 12-32, 16-34)	83	0.53	>15200	1272
CC[C@H](C)[C@@H]1NC(=O)[C@H](C)NC(=O)[C@H](CCCCN)NC(=O)[C@H](CC(C)C)NC(=O)[C@@H]2CSSC[C@@H](C(=O)N[C@@H](Cc3ccc(O)cc3)C(=O)N3CCC[C@H]3C(=O)N[C@@H](CCCNC(=N)N)C(N)=O)NC(=O)[C@H](CCCCN)NC(=O)[C@@H]3CSSC[C@H](NC(=O)[C@H](CCC(=O)O)NC(=O)[C@H](C(C)C)NC(=O)[C@H](CO)NC(=O)[C@H](C)NC(=O)[C@H](CO)NC(=O)[C@@H](NC(=O)[C@H](CCCNC(=N)N)NC(=O)[C@H](CCSC)NC(=O)[C@H](CC(=O)O)NC(=O)[C@H](CCSC)NC(=O)[C@@H](N)CC(N)=O)CSSC[C@H](NC(=O)[C@H](CCCCN)NC(=O)CNC(=O)[C@H](Cc4ccccc4)NC(=O)[C@H]([C@@H](C)CC)NC(=O)[C@H](CO)NC(=O)CNC1=O)C(=O)N[C@@H](CCSC)C(=O)N[C@@H](CC(N)=O)C(=O)N[C@@H](CCCCN)C(=O)N[C@@H](CCCCN)C(=O)N3)C(=O)N[C@@H](CC(C)C)C(=O)N[C@@H](CCC(N)=O)C(=O)N[C@@H](CCCCN)C(=O)N2 [compound 33] (H-NMDMRCSASVECLQKCLKAIGSIFGKCMNKKCKCYPR-NH2; disulfide 6-27, 12-32, 16-34)	2163	0.76	>7400	>7400
CC[C@H](C)[C@@H]1NC(=O)[C@H](C)NC(=O)[C@H](CCCCN)NC(=O)[C@H](CC(C)C)NC(=O)[C@@H]2CSSC[C@@H](C(=O)N[C@@H](Cc3ccc(O)cc3)C(=O)N3CCC[C@H]3C(=O)N[C@@H](CCCNC(=N)N)C(N)=O)NC(=O)[C@H](CCCCN)NC(=O)[C@@H]3CSSC[C@H](NC(=O)[C@H](CCC(=O)O)NC(=O)[C@H](C(C)C)NC(=O)[C@H](CO)NC(=O)[C@H](C)NC(=O)[C@H](CO)NC(=O)[C@@H](NC(=O)[C@H](CCCNC(=N)N)NC(=O)[C@H](CCSC)NC(=O)[C@H](CC(=O)O)NC(=O)[C@H](CCSC)NC(=O)[C@@H](N)CC(N)=O)CSSC[C@H](NC(=O)[C@H](CCCCN)NC(=O)CNC(=O)[C@H](Cc4ccccc4)NC(=O)[C@H]([C@@H](C)CC)NC(=O)[C@H](CO)NC(=O)CNC1=O)C(=O)N[C@@H](CCSC)C(=O)N[C@@H](CC(N)=O)C(=O)N[C@@H](CCCCN)C(=O)N[C@@H](CCCCN)C(=O)N3)C(=O)N[C@@H](C)C(=O)N[C@@H](CCC(N)=O)C(=O)N[C@@H](CCCCN)C(=O)N2 [compound 34] (H-NMDMRCSASVECAQKCLKAIGSIFGKCMNKKCKCYPR-NH2; disulfide 6-27, 12-32, 16-34)	4897	0.41	>22000	>22000
